Data from patent US10709705B2, “Aminopyrimidines as ALK inhibitors” (THE REGENTS OF THE UNIVERSITY OF MICHIGAN, priority 2016, dated 2020).

Assays:
[1] = tested on: H3122 cells (EML4-ALK); test: Cell growth inhibition assay (WST-8), H3122; type: cell-based; conditions: Homo sapiens, NCI-H3122, read-out: H3122 (nM) (EML4-ALK), 50% of cell growth inhibition (IC50), WST-8, versus DMSO control
Protocol: (§1) H3122 and Kappas-299 cells were purchased from American Type Culture Collection (Manassas, Va., USA) and were used within 2 months after initiating from original stocks. All cell lines were cultured as recommended. For cell growth inhibition assay, cells were treated with different concentrations of the tested compounds, diluted from stock to culture media containing a 0.2% DMSO as the final concentration. Cell viability was determined using the WST-8 cell proliferation assay kit (Dojindo Molecular Technologies) according to manufacturer's instructions. Three independent experiments in triplicates were performed.

[2] = tested on: Kappas-299 cells (NPM-ALK); test: Cell growth inhibition assay (WST-8), Kappas-299; type: cell-based; conditions: read-out: Kappas-299 (nM) (NPM-ALK), 50% of cell growth inhibition (IC50), WST-8, versus DMSO control
Protocol: as §1

[3] = target: T1, ALK S1206Y (Homo sapiens, UniProt Q9UM73, S1206Y); test: Mutant ALK kinase inhibition, Lance TR-FRET, S1206Y; type: biochemical; conditions: Table 5; ATP 100 μM
T1 construct: made in house; host or cells: SF9 insect cells
Protocol: The cytoplasmic domain (amino acid 1058-1620) of wild-type human ALK protein expressed as N-terminal GST-fusion protein was purchased from Carna Biosciences, Inc (Japan). Mutated ALK proteins were expressed in SF9 insect cells with N-terminal tags cleaved after purification. Kinase activities of all enzymes were assessed using a Lance® TR-FRET assay kit from Perkin Elmer Life Sciences (Waltham, Mass.). 2.5 μL of compound solution and 5 μL of protein solution were added into a black low volume 384 well microtiter plate which was incubated for 30 minutes with gentle shaking at room temperature, followed by adding 2.5 μL of fluorescently labeled peptide substrate (ULight™-IRS-1 (Tyr983) Peptide) and ATP mixture solution. The kinase reaction was performed in 50 mM HEPES (pH 7.5) with 1 mM EGTA, 1 mM MgCl2, and 2 mM DTT, 0.01% Tween-20 added right before the assay. Final concentrations of ATP, substrates, and DMSO were 100 μM, 20 nM, and 0.5%, respectively. […] The final mixture was incubated in the dark for 1 hour before the plate was read on a Tecan Infinite M-1000 multi-mode plate reader (Tecan, Durham N.C.) with an excitation wavelength of 320 nm. Emission intensities were measured at both 620 and 665 nm with the intensity ratio between 665 and 620 nm corresponding to the peptide substrate phosphorylation. […]

[4] = target: ALK F1174L (Homo sapiens, UniProt Q9UM73, F1174L); test: Cell based assay, ALK F1174L; set-up: key: + = active; −− = inactive; conditions: Table 5
[5] = target: T2, FAK (Homo sapiens, UniProt Q05397); test: KINOMEscan kinase panel, FAK; type: binding
T2 construct: purchased LeadHunter Discovery Services (currently DiscoverX Corporation), KINOMEscan screening service
T2 sequence (Q05397 whole entry): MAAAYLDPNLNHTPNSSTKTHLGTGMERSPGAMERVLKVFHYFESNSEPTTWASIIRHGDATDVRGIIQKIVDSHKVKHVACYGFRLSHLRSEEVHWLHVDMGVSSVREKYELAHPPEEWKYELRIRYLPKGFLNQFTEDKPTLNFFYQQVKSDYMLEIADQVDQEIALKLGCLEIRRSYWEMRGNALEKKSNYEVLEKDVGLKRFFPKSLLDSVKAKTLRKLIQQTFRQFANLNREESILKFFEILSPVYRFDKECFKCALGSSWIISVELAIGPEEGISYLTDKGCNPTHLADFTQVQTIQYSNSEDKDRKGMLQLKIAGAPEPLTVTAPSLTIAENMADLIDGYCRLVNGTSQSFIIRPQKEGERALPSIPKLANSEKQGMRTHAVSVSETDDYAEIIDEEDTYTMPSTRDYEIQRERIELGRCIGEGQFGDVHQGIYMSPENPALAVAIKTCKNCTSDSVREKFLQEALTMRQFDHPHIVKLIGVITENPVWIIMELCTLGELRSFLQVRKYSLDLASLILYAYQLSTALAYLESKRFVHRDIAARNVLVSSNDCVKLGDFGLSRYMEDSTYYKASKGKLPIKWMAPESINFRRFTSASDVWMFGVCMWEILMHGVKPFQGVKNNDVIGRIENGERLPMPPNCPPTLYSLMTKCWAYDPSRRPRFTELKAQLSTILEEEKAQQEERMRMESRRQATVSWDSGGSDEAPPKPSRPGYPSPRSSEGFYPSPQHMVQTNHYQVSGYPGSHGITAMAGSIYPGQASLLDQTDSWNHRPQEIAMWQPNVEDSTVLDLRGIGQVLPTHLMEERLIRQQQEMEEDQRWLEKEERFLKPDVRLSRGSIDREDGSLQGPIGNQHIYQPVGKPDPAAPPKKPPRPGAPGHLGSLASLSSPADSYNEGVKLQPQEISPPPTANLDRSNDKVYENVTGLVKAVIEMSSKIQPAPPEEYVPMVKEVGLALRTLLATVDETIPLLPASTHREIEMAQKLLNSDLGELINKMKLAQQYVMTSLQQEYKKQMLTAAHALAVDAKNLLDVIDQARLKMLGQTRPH
Text: (§2) Cpd. No. 5 was screened for its activity against a panel of human kinases using the KINOMEscan™ screening platform from LeadHunter Discovery Services (currently DiscoverX Corporation (Fremont, Calif. 94538, United States). See Table 7.

[6] = target: T3, LRRK2 (Homo sapiens, UniProt Q5S007); test: KINOMEscan kinase panel, LRRK2; type: binding
T3 construct: purchased LeadHunter Discovery Services (currently DiscoverX Corporation), KINOMEscan screening service
T3 sequence (Q5S007 whole entry): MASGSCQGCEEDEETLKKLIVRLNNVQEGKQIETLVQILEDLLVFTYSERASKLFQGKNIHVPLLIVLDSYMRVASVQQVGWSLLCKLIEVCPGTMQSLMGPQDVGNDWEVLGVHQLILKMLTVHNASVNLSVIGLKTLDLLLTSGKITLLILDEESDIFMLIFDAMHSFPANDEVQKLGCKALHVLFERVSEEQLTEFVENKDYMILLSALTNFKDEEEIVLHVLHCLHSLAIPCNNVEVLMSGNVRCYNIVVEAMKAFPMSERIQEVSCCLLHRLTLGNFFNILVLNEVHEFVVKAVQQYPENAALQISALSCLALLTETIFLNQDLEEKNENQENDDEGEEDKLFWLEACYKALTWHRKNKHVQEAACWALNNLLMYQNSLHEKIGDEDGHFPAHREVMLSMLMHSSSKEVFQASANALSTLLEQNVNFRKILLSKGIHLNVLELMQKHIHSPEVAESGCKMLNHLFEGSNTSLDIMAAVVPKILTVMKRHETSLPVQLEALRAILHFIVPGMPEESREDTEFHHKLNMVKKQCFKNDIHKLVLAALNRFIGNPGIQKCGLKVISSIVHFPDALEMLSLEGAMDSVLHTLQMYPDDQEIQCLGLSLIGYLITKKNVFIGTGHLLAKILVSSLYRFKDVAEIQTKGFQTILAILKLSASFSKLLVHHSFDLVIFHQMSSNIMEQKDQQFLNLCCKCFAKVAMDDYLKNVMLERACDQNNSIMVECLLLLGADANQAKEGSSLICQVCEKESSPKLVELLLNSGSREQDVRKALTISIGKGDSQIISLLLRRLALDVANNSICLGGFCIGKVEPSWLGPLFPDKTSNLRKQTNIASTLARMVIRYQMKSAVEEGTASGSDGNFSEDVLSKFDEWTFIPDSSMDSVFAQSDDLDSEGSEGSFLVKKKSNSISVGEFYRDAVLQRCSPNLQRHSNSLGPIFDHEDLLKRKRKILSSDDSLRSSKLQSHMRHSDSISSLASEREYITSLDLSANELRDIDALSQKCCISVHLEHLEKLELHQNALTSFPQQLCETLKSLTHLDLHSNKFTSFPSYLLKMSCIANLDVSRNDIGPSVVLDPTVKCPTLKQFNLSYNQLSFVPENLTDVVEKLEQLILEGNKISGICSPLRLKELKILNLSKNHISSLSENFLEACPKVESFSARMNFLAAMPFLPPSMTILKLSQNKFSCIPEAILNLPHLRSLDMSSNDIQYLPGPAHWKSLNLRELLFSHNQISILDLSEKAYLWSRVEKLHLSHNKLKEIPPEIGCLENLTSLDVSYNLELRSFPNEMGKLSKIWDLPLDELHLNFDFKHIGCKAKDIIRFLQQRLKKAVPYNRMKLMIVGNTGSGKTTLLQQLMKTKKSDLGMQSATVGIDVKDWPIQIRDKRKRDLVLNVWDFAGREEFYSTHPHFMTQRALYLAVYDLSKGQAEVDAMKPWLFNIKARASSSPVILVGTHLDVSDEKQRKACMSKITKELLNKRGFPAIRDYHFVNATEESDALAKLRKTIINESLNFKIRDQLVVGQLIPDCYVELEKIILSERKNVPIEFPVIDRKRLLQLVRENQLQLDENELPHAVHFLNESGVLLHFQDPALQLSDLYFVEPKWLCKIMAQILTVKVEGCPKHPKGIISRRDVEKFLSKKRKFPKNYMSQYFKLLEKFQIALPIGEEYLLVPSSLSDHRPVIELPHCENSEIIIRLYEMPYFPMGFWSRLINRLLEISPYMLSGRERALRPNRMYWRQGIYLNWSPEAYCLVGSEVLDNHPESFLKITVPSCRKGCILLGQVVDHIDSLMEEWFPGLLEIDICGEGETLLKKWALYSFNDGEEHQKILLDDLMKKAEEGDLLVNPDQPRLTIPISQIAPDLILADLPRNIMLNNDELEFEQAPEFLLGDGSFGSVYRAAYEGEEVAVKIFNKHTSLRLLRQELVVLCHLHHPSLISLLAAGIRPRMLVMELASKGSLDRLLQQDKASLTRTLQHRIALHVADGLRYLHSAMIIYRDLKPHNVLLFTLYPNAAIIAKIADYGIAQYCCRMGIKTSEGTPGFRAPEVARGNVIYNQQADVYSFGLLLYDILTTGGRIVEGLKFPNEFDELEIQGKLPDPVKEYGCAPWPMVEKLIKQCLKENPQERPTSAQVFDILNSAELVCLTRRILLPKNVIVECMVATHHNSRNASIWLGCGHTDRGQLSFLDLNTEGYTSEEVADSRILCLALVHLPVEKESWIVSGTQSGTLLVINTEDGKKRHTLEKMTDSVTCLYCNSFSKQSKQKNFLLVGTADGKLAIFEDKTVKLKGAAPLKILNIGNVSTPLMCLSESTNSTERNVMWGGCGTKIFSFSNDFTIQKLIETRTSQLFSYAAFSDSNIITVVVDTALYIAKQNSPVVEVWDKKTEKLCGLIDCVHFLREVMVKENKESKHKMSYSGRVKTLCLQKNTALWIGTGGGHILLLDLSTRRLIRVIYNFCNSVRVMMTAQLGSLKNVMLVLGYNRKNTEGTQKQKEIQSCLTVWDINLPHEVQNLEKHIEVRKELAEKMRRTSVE
Text: as §2

[7] = target: T4, LRRK2(G2019S) (Homo sapiens, UniProt Q5S007, G2019S); test: KINOMEscan kinase panel, LRRK2(G2019S); type: binding
T4 construct: purchased LeadHunter Discovery Services (currently DiscoverX Corporation), KINOMEscan screening service
T4 sequence (Q5S007 whole entry G2019S): as the sequence (Q5S007 whole entry) above, with G2019S counted along it
Text: as §2

[8] = target: T5, FES (Homo sapiens, UniProt P07332); test: KINOMEscan kinase panel, FES; type: binding
T5 construct: purchased LeadHunter Discovery Services (currently DiscoverX Corporation), KINOMEscan screening service
T5 sequence (P07332 whole entry): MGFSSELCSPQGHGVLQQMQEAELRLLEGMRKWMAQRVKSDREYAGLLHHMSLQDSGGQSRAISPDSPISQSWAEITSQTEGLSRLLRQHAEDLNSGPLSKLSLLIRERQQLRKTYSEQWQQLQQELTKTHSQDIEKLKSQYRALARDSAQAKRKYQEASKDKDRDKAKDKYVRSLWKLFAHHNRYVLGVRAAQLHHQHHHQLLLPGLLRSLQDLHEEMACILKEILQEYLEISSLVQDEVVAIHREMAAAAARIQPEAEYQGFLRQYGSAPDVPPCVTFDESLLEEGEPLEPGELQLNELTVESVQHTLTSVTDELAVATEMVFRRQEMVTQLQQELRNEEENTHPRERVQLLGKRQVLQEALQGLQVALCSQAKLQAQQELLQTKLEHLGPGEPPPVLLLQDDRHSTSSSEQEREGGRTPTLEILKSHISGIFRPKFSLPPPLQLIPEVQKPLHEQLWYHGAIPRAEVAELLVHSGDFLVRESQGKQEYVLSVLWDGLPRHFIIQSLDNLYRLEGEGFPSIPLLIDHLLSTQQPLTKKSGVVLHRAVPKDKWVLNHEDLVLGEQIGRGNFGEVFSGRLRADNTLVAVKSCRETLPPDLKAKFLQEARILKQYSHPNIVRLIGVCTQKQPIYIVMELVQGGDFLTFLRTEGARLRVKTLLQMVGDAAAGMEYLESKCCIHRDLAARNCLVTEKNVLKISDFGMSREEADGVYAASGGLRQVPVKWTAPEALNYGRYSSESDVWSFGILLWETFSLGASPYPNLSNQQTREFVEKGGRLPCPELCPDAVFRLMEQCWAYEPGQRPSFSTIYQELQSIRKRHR
Text: as §2

[9] = target: T6, INSR (Homo sapiens, UniProt P06213); test: KINOMEscan kinase panel, INSR; type: binding
T6 construct: purchased LeadHunter Discovery Services (currently DiscoverX Corporation), KINOMEscan screening service
Text: as §2

[10] = tested on: Human lymphoma cells, KARPAS 299 xenograft; test: KARPAS 299 xenograft tumor growth in SCID mice; type: in vivo; conditions: given orally, once daily for 3 weeks, FIG. 1
Protocol: Cpd. Nos. 5 and 6 were dissolved in a solution of 98% PEG200: 2% TPGS (Sigma).
Human lymphoma cells, KARPAS 299 were maintained at 37° C., 95% air, 5% carbon dioxide in RPMI 1640 medium supplemented with 10% Fetal Bovine Serum, 100 units/ml of penicillin and 100 units/ml of streptomycin (GIBCO™, Invitrogen Corp.) and passaged twice weekly.
Tumor cells for xenografts were washed twice in PBS, and re-suspended in an ice cold mixture of 1:1 PBS and Matrigel (BD Biosciences, Invitrogen Corp.) for a final Matrigel protein concentration of 5 mg/ml. Cells at 5×10^6 cells in 0.1 ml were injected subcutaneously (s.c.) into the flank region of each mouse. All tumors were inoculated into SCID mice (strain:236 C.B-17 SCID, Charles River).
The size of tumors growing in the mice was measured in two dimensions using calipers. Tumor volume (mm^3)=(AxB^2)/2 where A and B are the tumor length and width (in mm), respectively. During treatment, tumor volume and body weight were measured three times a week. After the treatment was stopped, tumor volume and body weight was measured at least once a week.
Tumors were not allowed to exceed 10% of the animal's total body weight. If an animal had two or more tumors the total weight of all tumors were not allowed to exceed 10% of the animal's total body weight. […]

With `Cc1cc(Nc2ncc(Cl)c(Nc3ccccc3S(=O)(=O)C(C)C)n2)c(OC(C)C)cc1C1=CCN(C2CCOCC2)CC1` [Cpd. No. 5, 5-chloro-N2-(2-isopropoxy-5-methyl-4-(1-(tetrahydro-2H-pyran-4-yl)-1,2,3,6-tetrahydropyridin-4-yl)phenyl)-N4-(2-(isopropylsulfonyl)phenyl)pyrimidine-2,4-diamine] as the compound, how does the IC50 [1] read?
The IC50 was 27 nM.

And the IC50 [2]?
Its IC50 is 13 nM.

And the IC50 [3]?
Its IC50 is 1.3 nM.

And the “F1174L (c)” value [4]?
Its value is “−− (c)”.

And the Kd [5]?
The Kd was 5.4 nM.

What about the Kd [6] of the same compound?
Its Kd is 6.5 nM.

What about the Kd [7] of the same compound?
The Kd was 6.6 nM.

And the Kd [8]?
Its Kd is 12 nM.

What about the Kd [9] of the same compound?
Its Kd is 54 nM.

And the “tumor growth in the KARPAS 299 xenograph model” value [10]?
Its value is “inhibit tumor growth”.
